Measurements: patent publication US9358229B2, “JAK PI3K/mTOR combination therapy” (Novartis Pharma AG, priority 2011, dated 2016)
Where two headings read alike, the source gives them in different places.

Columns and labels:
[1] = test system: Ba/F3-EPOR JAK2 wild-type (wt) cells; experiment: Cell proliferation in Ba/F3-EPOR JAK2 wild-type cells; format: cell-based; conditions: Mus musculus, read-out: IC50, cell proliferation
Protocol: (§1) Mouse (Ba/F3 and Ba/F3-EPOR wild-type or expressing JAK2V617F(VF)) and human (JAK2VF mutated HEL and SET2) cell lines and primary MPN CD34+ cells from patients with myelofibrosis (MF) or polycythemia vera (PV) were used; BCR/ABL mutated K562 cells were used in some experiments. Cell proliferation, colony formation, apoptosis, cell cycle and protein phosphorylation status were evaluated. Effects of drug combination were analyzed according to Chou and Talalay to calculate the combination index (CI); a CI<1.0 indicates synergistic activity.

[2] = test system: BCR/ABL mutated K562 cells; experiment: Cell proliferation in K562 cells; format: cell-based; conditions: Homo sapiens
Protocol: as §1

[3] = test system: JAK2V617F-mutated HEL cells; experiment: Cell proliferation and colony formation in HEL cells; format: cell-based; conditions: Homo sapiens
Protocol: as §1

[4] = test system: Ba/F3-EPOR JAK2V617F-mutated cells; experiment: Cell proliferation in Ba/F3-EPOR JAK2V617F-mutated cells; format: cell-based; conditions: Mus musculus, read-out: IC50, cell proliferation
Protocol: as §1

[5] = test system: cell lines (Ba/F3, Ba/F3-EPOR, HEL, SET2); experiment: Apoptosis (Annexin-V) in cell lines; format: cell-based; conditions: at maximum / highest concentrations
Protocol: as §1

[6] = test system: JAK2V617F mutated patients cells; experiment: Single-colony genotyping in JAK2V617F mutated patients cells; format: cell-based, human; conditions: n=7
Protocol: (§2) Then, the activity of RAD001 and Compound A was analyzed in primary cells from MPN patients.

[7] = test system: BaF3 JAK2V617F-luc+ cells; experiment: SCID BaF3 JAK2V617F-luciferase mouse model; format: in vivo; conditions: daily per os, 60 mpk Compound B, 45 mpk Compound A
Protocol: To ascertain the effects of drugs targeting PI3K/Akt/mTOR pathway alone and in combination with JAK2 inhibitor in a murine model of myeloproliferative neoplasms, a SCID BaF3 JAK2^V617F-luciferase mouse model was used. […] Female SCID mice (4-6 weeks of age; Harlan) were fed rodent standard chow and provided with water ad libitum. Mice were given 3×10^6 JAK2^V617F-luc+ cells by tail vein injection. Mice were injected with D-luciferin before imaging to detect a bioluminescence signal that is proportional to the clone burden. Baseline imaging was performed using a Photon Imager (Biospace Lab) apparatus to establish bioluminescence on day 6 after cell injection. […] Drugs treatment was administered daily per os (by mouth). Imaging was performed on day 7, 14, 21, and 28 after the first drug dose. Mice were followed daily for survival and humanely sacrificed when they developed hind limb paralysis or became moribund and considered deceased at the time at which they were sacrificed.

[8] = test system: JAK2V617F-mutated SET2 cells; experiment: Cell proliferation and colony formation in SET2 cells; format: cell-based; conditions: Homo sapiens, SET-2
CD34+ cells of MF pts = experiment: Proliferation of CD34+ cells of MF patients; format: cell-based; conditions: Homo sapiens
Protocol: as §1, §2

[9] = test system: EPO-independent colonies (EEC) of PV patients cells; experiment: Erythropoietin-independent colony (EEC) assay; format: cell-based, human; conditions: for prevention of erythropoietin-independent colony (EEC) formation: primary cells from MPN patients
Protocol: as §1, §2

[10] = test system: CD34+ cells of healthy donors; experiment: Proliferation of CD34+ cells of healthy donors; format: cell-based; conditions: Homo sapiens
[11] = test system: JAK2 V617F Knock-in (KI) mouse; experiment: C57B16/J JAK2 V617F Knock-in (KI) mouse model; format: in vivo; conditions: KI mice treated for 5 days
Protocol: Mice were treated for 5 days, then blood, spleen and bone marrow cells were obtained for further analysis.

| IC50 ([1]; Ba/F3-EPOR JAK2 wild-type cells) [nM] | IC50 ([4]; Ba/F3-EPOR JAK2V617F-mutated cells) [nM] | SMILES | IC50 [1] [nM] | IC50 [2] [nM] | IC50 [3] [nM] | IC50 [4] [nM] | apoptosis / Annexin-V +ve cells [5] | reduction of VF in favor of wild-type colonies ([6]; mean) [%] | reduction of VF in favor of wild-type colonies, range ([6]; range) | MEAN LIFESPAN [7] [days] | LIFESPAN INCREASE (%) VS VEHICLE [7] [%] | IC50 [8] [nM] | IC50 (CD34+ cells of MF pts) [nM] | IC50 ([9]; Homo sapiens, PV patients cells, read-out: IC50, growth of EPO-independent colonies (EEC)) [nM] | prevention of erythropoietin-independent colony (EEC) formation [9] | IC50 [10] [nM] | median spleen index (ratio of spleen weight to body weight×100) [11] | reticulocyte count median [11] [No. per HPF] |
| --- | --- | --- | --- | --- | --- | --- | --- | --- | --- | --- | --- | --- | --- | --- | --- | --- | --- | --- |
| – | – | Cn1c(=O)n(-c2ccc(C(C)(C)C#N)cc2)c2c3cc(-c4cnc5ccccc5c4)ccc3ncc21 [Compound A, 2-methyl-2-[4-(3-methyl-2-oxo-8-quinolin-3-yl-2,3-dihydro-imidazo[4,5-c]quinolin-1-yl)-phenyl]-propionitrile] | 676 ± 200 | 5000 | 387 ± 90 | 87 ± 50 | 30-40% | 40±16 | 18-71% | 24 | 42 | 334 ± 40 | 43 ± 20 | 20 ± 10 | low nM range | 780 ± 150 | 35 | 50 |
| – | – | N#CC[C@H](C1CCCC1)n1cc(-c2ncnc3[nH]ccc23)cn1 [Compound B, (3R)-3-cyclopentyl-3-[4-(7H-pyrrolo[2,3-d]pyrimidin-4-yl)-1H-pyrazol-1-yl]propanenitrile] | – | – | – | – | – | – | – | 19 | 19 | – | – | – | – | – | – | 44 |
| > 10000 | 615 ± 50 | CO[C@H]1C[C@@H]2CC[C@@H](C)[C@@](O)(O2)C(=O)C(=O)N2CCCC[C@H]2C(=O)O[C@H]([C@H](C)C[C@@H]2CC[C@@H](OCCO)[C@H](OC)C2)CC(=O)[C@H](C)/C=C(\C)[C@@H](O)[C@@H](OC)C(=O)[C@H](C)C[C@H](C)/C=C/C=C/C=C/1C [RAD001, reference compound] | – | – | – | – | – | – | – | – | – | – | – | – | low nM range | – | – | – |
